Key:
Type in all cases: biochemical
cathepsin B = target: T1, cathepsin B (Homo sapiens, UniProt P07858); test: Cathepsin B enzyme inhibition in vitro (kinetic fluorescence assay); conditions: Ki(cathepsin B)/Ki(calpain) ratio
T1 construct: cathepsin B—isolated from human liver; purchased Calbiochem 219362; host or cells: human liver (tissue isolate)
Procedure, shortened: (§1)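 Kinetic fluorescence (ex 390/em 460 nm), room temperature: calpain-I (human erythrocyte, 20 nM) with 100 µM Suc-Leu-Tyr-AMC, imidazole/CaCl2 pH 7.3; cathepsin B (liver, 0.25 nM), 100 µM Z-Phe-Arg-AMC; L (liver, 1 nM), 2 µM Z-Phe-Arg-AMC; S (recombinant, 0.5 nM), 20 µM Z-Val-Val-Arg-AMC; cathepsins in MES/EDTA/cysteine pH 6.0. Apparent Ki via Cheng-Prusoff, 2–4 curves averaged.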

cathepsin K = target: T2, cathepsin K (Homo sapiens, UniProt P43235); test: Cathepsin K enzyme inhibition in vitro (kinetic fluorescence assay); conditions: Ki(cathepsin K)/Ki(calpain) ratio
T2 construct: purchased Calbiochem 342001; host or cells: E. coli
T2 sequence (P43235 115-329): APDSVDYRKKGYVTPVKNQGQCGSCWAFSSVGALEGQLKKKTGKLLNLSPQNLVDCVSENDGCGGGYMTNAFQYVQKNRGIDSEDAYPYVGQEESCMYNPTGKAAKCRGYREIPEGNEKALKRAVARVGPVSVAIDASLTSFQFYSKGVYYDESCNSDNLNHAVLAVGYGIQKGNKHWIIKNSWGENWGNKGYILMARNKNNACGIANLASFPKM
Procedure: Testing for blockade of the corresponding enzymic activities was carried out by means of kinetic fluorescence assays (excitation 390 nm, emission 460 nm).
Apparent Ki values were calculated from the experimentally determined IC50 values by the Cheng-Prussoff relation assuming a reversible competitive enzyme inhibition. The Km values of the substrates used under the assay conditions indicated above were: 90 μM (Z-Phe-Arg-AMC, cathepsin B), 10 μM (Z-Gly-Pro-Arg-AMC, cathepsin K), 2 μM (Z-Phe-Arg-AMC, cathepsin L), and 30 μM (Z-Val-Val-Arg-AMC, cathepsin S).
The indicated Ki values are averages of the inhibition constants calculated on the basis of 2 to 4 independent dose-effect plots.
• 1. Calpain I: • 20 nM calpain-I—isolated from human erythrocytes (Calbiochem #208713), 100 μM Suc-Leu-Tyr-AMC (Bachem #1-1355) as substrate in buffer with 62 mM imidazole, 0.3 mM CaCl2, 0.10% CHAPS, 0.05% BSA, 1 mM DTT at pH 7.3 and room temperature. • 2. Cathepsin B: • 0.25 nM cathepsin B—isolated from human liver (Calbiochem #219362), 100 μM Z-Phe-Arg-AMC (Bachem #1-1160) as substrate 50 mM MES, 2 mM EDTA, 0.05% Brij 35, 2.5 mM L-cysteine, pH 6.0, room temperature. • 3. Cathepsin K: • 3 nM cathepsin K—activated from recombinant human procathepsin K from E. coli (Calbiochem #342001), 10 μM Z-Gly-Pro-Arg-AMC (Biomol #P-142) as substrate in 50 mM MES, 2 mM EDTA, 0.05% Brij 35, 2.5 mM L-cysteine, pH 6.0, room temperature. • 4. Cathepsin L: • 1 nM cathepsin L—isolated from human liver (Calbiochem #219402), 2 μM Z-Phe-Arg-AMC (Bachem #1-1160) as substrate in 50 mM MES, 2 mM EDTA, 0.05% Brij 35, 2.5 mM L-cysteine, pH 6.0, room temperature. • 5. Cathepsin S: • 0.5 nM recombinant human cathepsin S from E. coli (Calbiochem #219343), 20 μM Z-Val-Val-Arg-AMC (Bachem #1-1540) as substrate in 50 mM MES, 2 mM EDTA, 0.05% Brij 35, 2.5 mM L-cysteine, pH 6.0, room temperature.

cathepsin L = target: T3, cathepsin L (Homo sapiens, UniProt P07711); test: Cathepsin L enzyme inhibition in vitro (kinetic fluorescence assay); conditions: Ki(cathepsin L)/Ki(calpain) ratio
T3 construct: cathepsin L—isolated from human liver; purchased Calbiochem 219402; host or cells: human liver (tissue isolate)
T3 sequence (P07711 114-333): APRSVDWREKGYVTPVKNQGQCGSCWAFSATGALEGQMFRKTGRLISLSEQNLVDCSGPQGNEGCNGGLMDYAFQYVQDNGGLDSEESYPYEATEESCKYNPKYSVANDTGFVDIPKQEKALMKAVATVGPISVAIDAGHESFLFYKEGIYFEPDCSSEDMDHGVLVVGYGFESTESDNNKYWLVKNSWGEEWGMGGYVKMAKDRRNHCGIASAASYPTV
Procedure, shortened: as §1

cathepsin S = target: T4, cathepsin S (Homo sapiens, UniProt P25774); test: Cathepsin S enzyme inhibition in vitro (kinetic fluorescence assay); conditions: Ki(cathepsin S)/Ki(calpain) ratio
T4 construct: purchased Calbiochem 219343; host or cells: E. coli
T4 sequence (P25774 115-331): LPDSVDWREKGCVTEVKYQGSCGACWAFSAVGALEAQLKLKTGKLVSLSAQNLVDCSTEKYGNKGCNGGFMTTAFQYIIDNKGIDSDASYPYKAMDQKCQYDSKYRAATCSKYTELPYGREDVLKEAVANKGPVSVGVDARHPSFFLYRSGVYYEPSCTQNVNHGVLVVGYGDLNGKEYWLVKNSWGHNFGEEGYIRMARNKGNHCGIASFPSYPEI
Procedure, shortened: as §1

SMILES: NC(=O)C(=O)C(Cc1ccccc1)NC(=O)c1cccnc1-n1ccc(-c2ccccn2)n1 (stereo not drawn) [Example 35, N-(3-Amino-1-benzyl-2,3-dioxopropyl)-2-(3-pyridin-2-yl-1H-pyrazol-1-yl)nicotinamide]
- Sel cat. B (cathepsin B): + (+ means 10≦Ki(cathepsin B)/Ki(calpain)<30)
- Sel cat. K (cathepsin K): + (+ means 10≦Ki(cathepsin K)/Ki(calpain)<30)
- Sel cat. L (cathepsin L): ++ (++ means a Ki(cathepsin L)/Ki(calpain) ratio of ≧50)
- Sel cat. S (cathepsin S): ++ (++ means a Ki(cathepsin S)/Ki(calpain) ratio of ≧100)

SMILES: NC(=O)C(=O)C(Cc1ccccc1)NC(=O)c1cccnc1-n1ccc(-c2ccccc2OC(F)F)n1 (stereo not drawn) [Example 166, N-[3-Amino-2,3-dioxo-1-(phenylmethyl)propyl]-2-(3-{2-[(difluoromethyl)oxy]phenyl}-1H-pyrazol-1-yl)pyridine-3-carboxamide]
- Sel cat. B (cathepsin B): + (+ means 10≦Ki(cathepsin B)/Ki(calpain)<30)
- Sel cat. K (cathepsin K): ++ (++ means a Ki(cathepsin K)/Ki(calpain) ratio of ≧30)
- Sel cat. L (cathepsin L): ++ (++ means a Ki(cathepsin L)/Ki(calpain) ratio of ≧50)
- Sel cat. S (cathepsin S): ++ (++ means a Ki(cathepsin S)/Ki(calpain) ratio of ≧100)

SMILES: COc1ccc(CC(NC(=O)c2cccnc2-n2ccc(-c3ccc(Cl)cc3Cl)n2)C(=O)C(N)=O)cc1 (stereo not drawn) [Example 98, N-(3-Amino-1-{[4-(methyloxy)phenyl]methyl}-2,3-dioxopropyl)-2-[3-(2,4-dichlorophenyl)-1H-pyrazol-1-yl]pyridine-3-carboxamide]
- Sel cat. B (cathepsin B): ++ (++ means a Ki(cathepsin B)/Ki(calpain) ratio of ≧30)
- Sel cat. K (cathepsin K): ++ (++ means a Ki(cathepsin K)/Ki(calpain) ratio of ≧30)
- Sel cat. L (cathepsin L): ++ (++ means a Ki(cathepsin L)/Ki(calpain) ratio of ≧50)
- Sel cat. S (cathepsin S): ++ (++ means a Ki(cathepsin S)/Ki(calpain) ratio of ≧100)

SMILES: NC(=O)C(=O)C(Cc1ccccc1)NC(=O)c1cccnc1-n1ccc(-c2ccccc2Cl)n1 (stereo not drawn) [Example 54, N-(3-Amino-1-benzyl-2,3-dioxopropyl)-2-[3-(2-chlorophenyl)-1H-pyrazol-1-yl]nicotinamide]
- Sel cat. B (cathepsin B): ++ (++ means a Ki(cathepsin B)/Ki(calpain) ratio of ≧30)
- Sel cat. K (cathepsin K): ++ (++ means a Ki(cathepsin K)/Ki(calpain) ratio of ≧30)
- Sel cat. L (cathepsin L): ++ (++ means a Ki(cathepsin L)/Ki(calpain) ratio of ≧50)
- Sel cat. S (cathepsin S): ++ (++ means a Ki(cathepsin S)/Ki(calpain) ratio of ≧100)

SMILES: COc1c(C)cc(C)cc1-c1ccn(-c2ncccc2C(=O)NC(Cc2ccccc2)C(=O)C(N)=O)n1 (stereo not drawn) [Example 121, N-[3-Amino-2,3-dioxo-1-(phenylmethyl)propyl]-2-{3-[3,5-dimethyl-2-(methyloxy)phenyl]-1H-pyrazol-1-yl}pyridine-3-carboxamide]
- Sel cat. B (cathepsin B): ++ (++ means a Ki(cathepsin B)/Ki(calpain) ratio of ≧30)
- Sel cat. K (cathepsin K): ++ (++ means a Ki(cathepsin K)/Ki(calpain) ratio of ≧30)
- Sel cat. L (cathepsin L): ++ (++ means a Ki(cathepsin L)/Ki(calpain) ratio of ≧50)
- Sel cat. S (cathepsin S): ++ (++ means a Ki(cathepsin S)/Ki(calpain) ratio of ≧100)

SMILES: CC(C)c1ccc(-c2ccn(-c3ncccc3C(=O)NC(Cc3ccccc3)C(=O)C(N)=O)n2)cc1 (stereo not drawn) [Example 87, N-[3-Amino-2,3-dioxo-1-(phenylmethyl)propyl]-2-{3-[4-(1-methylethyl)phenyl]-1H-pyrazol-1-yl}pyridine-3-carboxamide]
- Sel cat. B (cathepsin B): ++ (++ means a Ki(cathepsin B)/Ki(calpain) ratio of ≧30)
- Sel cat. K (cathepsin K): ++ (++ means a Ki(cathepsin K)/Ki(calpain) ratio of ≧30)
- Sel cat. L (cathepsin L): ++ (++ means a Ki(cathepsin L)/Ki(calpain) ratio of ≧50)
- Sel cat. S (cathepsin S): ++ (++ means a Ki(cathepsin S)/Ki(calpain) ratio of ≧100)

SMILES: NC(=O)C(=O)C(Cc1ccc(F)cc1)NC(=O)c1cccnc1-n1ccc(-c2ccc(Cl)cc2Cl)n1 (stereo not drawn) [Example 114, N-{-3-Amino-1-[(4-fluorophenyl)methyl]-2,3-dioxopropyl}-2-[3-(2,4-dichlorophenyl)-1H-pyrazol-1-yl]pyridine-3-carboxamide]
- Sel cat. B (cathepsin B): ++ (++ means a Ki(cathepsin B)/Ki(calpain) ratio of ≧30)
- Sel cat. K (cathepsin K): ++ (++ means a Ki(cathepsin K)/Ki(calpain) ratio of ≧30)
- Sel cat. L (cathepsin L): ++ (++ means a Ki(cathepsin L)/Ki(calpain) ratio of ≧50)
- Sel cat. S (cathepsin S): ++ (++ means a Ki(cathepsin S)/Ki(calpain) ratio of ≧100)

SMILES: NC(=O)C(=O)C(Cc1ccccc1)NC(=O)c1cccnc1-n1ccc(-c2cc(F)cc(F)c2)n1 (stereo not drawn) [Example 91, N-[3-Amino-2,3-dioxo-1-(phenylmethyl)propyl]-2-[3-(3,5-difluorophenyl)-1H-pyrazol-1-yl]pyridine-3-carboxamide]
- Sel cat. B (cathepsin B): ++ (++ means a Ki(cathepsin B)/Ki(calpain) ratio of ≧30)
- Sel cat. K (cathepsin K): + (+ means 10≦Ki(cathepsin K)/Ki(calpain)<30)
- Sel cat. L (cathepsin L): ++ (++ means a Ki(cathepsin L)/Ki(calpain) ratio of ≧50)
- Sel cat. S (cathepsin S): ++ (++ means a Ki(cathepsin S)/Ki(calpain) ratio of ≧100)

SMILES: NC(=O)C(=O)C(Cc1ccccc1)NC(=O)c1cccnc1-n1ccc(-c2ccc(N3CCOCC3)cc2Cl)n1 (stereo not drawn) [Example 99, N-[3-Amino-2,3-dioxo-1-(phenylmethyl)propyl]-2-[3-(2-chloro-4-morpholin-4-ylphenyl)-1H-pyrazol-1-yl]pyridine-3-carboxamide]
- Sel cat. B (cathepsin B): ++ (++ means a Ki(cathepsin B)/Ki(calpain) ratio of ≧30)
- Sel cat. K (cathepsin K): ++ (++ means a Ki(cathepsin K)/Ki(calpain) ratio of ≧30)
- Sel cat. L (cathepsin L): ++ (++ means a Ki(cathepsin L)/Ki(calpain) ratio of ≧50)
- Sel cat. S (cathepsin S): ++ (++ means a Ki(cathepsin S)/Ki(calpain) ratio of ≧100)

SMILES: NC(=O)C(=O)C(Cc1ccccc1)NC(=O)c1cccnc1-n1ccc(-c2cccc(N3CCOCC3)c2)n1 (stereo not drawn) [Example 58, N-(3-Amino-1-benzyl-2,3-dioxopropyl)-2-[3-(3-morpholin-4-ylphenyl)-1H-pyrazol-1-yl]nicotinamide]
- Sel cat. B (cathepsin B): + (+ means 10≦Ki(cathepsin B)/Ki(calpain)<30)
- Sel cat. K (cathepsin K): + (+ means 10≦Ki(cathepsin K)/Ki(calpain)<30)
- Sel cat. L (cathepsin L): ++ (++ means a Ki(cathepsin L)/Ki(calpain) ratio of ≧50)
- Sel cat. S (cathepsin S): ++ (++ means a Ki(cathepsin S)/Ki(calpain) ratio of ≧100)

SMILES: NC(=O)C(=O)C(Cc1ccccc1)NC(=O)c1cccnc1-n1ccc(-c2ccc(F)cc2)n1 (stereo not drawn) [Example 38, N-(3-Amino-1-benzyl-2,3-dioxopropyl)-2-[3-(4-fluorophenyl)-1H-pyrazol-1-yl]nicotinamide]
- Sel cat. B (cathepsin B): + (+ means 10≦Ki(cathepsin B)/Ki(calpain)<30)
- Sel cat. K (cathepsin K): + (+ means 10≦Ki(cathepsin K)/Ki(calpain)<30)
- Sel cat. L (cathepsin L): ++ (++ means a Ki(cathepsin L)/Ki(calpain) ratio of ≧50)
- Sel cat. S (cathepsin S): ++ (++ means a Ki(cathepsin S)/Ki(calpain) ratio of ≧100)

SMILES: NC(=O)C(=O)C(Cc1ccccc1)NC(=O)c1cccnc1-n1ccc(-c2ccc(Cl)cc2Cl)n1 (stereo not drawn) [Example 79, N-(3-Amino-1-benzyl-2,3-dioxopropyl)-2-[3-(2,4-dichlorophenyl)-1H-pyrazol-1-yl]nicotinamide]
- Sel cat. B (cathepsin B): ++ (++ means a Ki(cathepsin B)/Ki(calpain) ratio of ≧30)
- Sel cat. K (cathepsin K): ++ (++ means a Ki(cathepsin K)/Ki(calpain) ratio of ≧30)
- Sel cat. L (cathepsin L): ++ (++ means a Ki(cathepsin L)/Ki(calpain) ratio of ≧50)
- Sel cat. S (cathepsin S): ++ (++ means a Ki(cathepsin S)/Ki(calpain) ratio of ≧100)
